According to patent publication US20140154717A1, “METHOD FOR DETECTING CANCER CELL USING FLUORESCENTLY LABELED L-GLUCOSE DERIVATIVE, AND CANCER CELL-IMAGING AGENT COMPRISING FLUORESCENTLY LABELED L-GLUCOSE DERIVATIVE” (priority 2011, published 2014):
“Also recorded” adds a separate entry of the source.

Tests used:
[1] = tested on: tumor cells (C6 glioma); assay: In vivo fluorescent imaging using C6 tumor model mice (rat glioma C6 cells transplanted subcutaneously in nude mice); parameters: species or system mouse
Method: C6 cells were prepared according to an ordinary method so that the cell number was 2×10^7 cells/mL.
C6 cells were seeded on a 10 cm petri dish, allowed to stand still in a CO2 incubator, and cultured at 37° C. The culture medium was exchanged once every two days.
1 g/L glucose-containing Dulbecco's modified Eagle's Medium (DMEM) (Nacalai No. 08456-65), to which Fetal Bovine Serum (Equitech-Bio SFBM) was added so that the final concentration was 10% and penicillin-streptomycin (Nacalai No. 26253-84) was added so that the final concentration was 1%, was used.
5 to 6-week old athymic nude mice (BALB/cAJcl-nu/nu) were transplanted with 50 μL of a cell suspension adjusted to 2×10^7 cells/mL subcutaneously around the root of right hind paw, under isoflurane anesthesia. The transplanted tumor cells were observed until growing to about 200 to 300 mm^3, and used in vivo fluorescent imaging.
C6 tumor model mice were allowed to stand still in an in vivo fluorescence imaging apparatus IVIS (registered trademark) Kinetics (Caliper Life sciences) under isoflurane anesthesia and autofluorescence of the mouse skin was measured, and subsequently, 400 nmol (100 μL) of 2-NBDLG or 2-NBDG dissolved in physiological saline was administered from the tail vein over a period of 30 seconds, and measurement of the fluorescence imaging was started again from one minute after starting administration. The in vivo fluorescence imaging was measured at an excitation wavelength of 465 nm using a GFP filter (transmittable fluorescence wavelength: 515-575 nm). The measurement was conducted for 45 minutes, and images were taken every one minute during the initial 20 minute and every 5 minutes from 20 to 45 minutes, obtaining 25 images in total. The accumulated values (fluorescence value) of 2-NBDLG and 2-NBDG in the interested area were obtained by subtracting the autofluorescence images from the 25 images taken after administration of 2-NBDLG or 2-NBDG.
A vial of 0.5 mg of 2-NBDLG or 2-NBDG was dissolved in 400 μL of physiological saline directly before the experiment, to prepare a solution having a final concentration of 400 nmol/100 μL.

[2] = tested on: mouse insulinoma cells (MIN6); assay: Confocal imaging of MIN6 tumor cell cluster using 2-NBDLG+2-TRLG mixture; assay type: cell-based
Method: A 0.1 mg 2-TRLG vial was transferred into a desiccator and the temperature thereof was returned to room temperature. […] Specifically, 6.5 mL of the above-described 2-NBDLG solution was prepared beforehand and stirred vigorously. Then, 40 μL of DMSO was added to a 2-TRLG vial container using a RAININ chip (Mettler Toledo) in which adhesion to the tip wall is ignorable, and stirred with the vial container by a mixer to cause dissolution thereof. 2-TRLG adhered to the wall was collected to the bottom by spinning down, the whole quantity thereof was removed by [sequence] using the same chip, and dissolved in the 2-NBDLG solution being stirred. 2-TRLG slightly remaining in the 2-TRLG vial container was recovered using 25 μL of DMSO in the same manner as described above, and further dissolved in the 2-NBDLG solution. By the above-described method, a mixed solution of 100 μM 2-NBDLG+20 μM 2-TRLG (final concentration) was prepared with good reproducibility.
A 100 μM 2-NBDLG+20 μM 2-TRLG mixture was administered for 3 minutes in a condition completely covering the whole tumor cell cluster. The state of the solution covering the whole cell cluster was confirmed each time without fail by fluorescence images in the green and red wavelength ranges during administration and acquisition of a transmitted light image. By stopping application of the fluorescent glucose mixture and switching simultaneously to the solution to a no fluorescent glucose-containing HEPES solution, the background fluorescence became ignorable level in 1 minute.
By the method according to Example 3, image acquisition before administration of the mixture was started just after starting an experiment, and from then on, the fluorescence images in the blue, green and red wavelength ranges and a transmitted light image were acquired every 2 minutes until completion of the experiment. Regarding laser used, DAPI used for nuclear staining was excited by using 405 nm diode laser (AOTF 20%) and 2-NBDLG and 2-TRLG were excited by using 488 nm argon laser (output: 50%, AOTF 28%). The scan speed was 400 Hz.
For fluorescence detection, three fluorescence detectors were used as described below. For detection of blue fluorescence by DAPI, a photomultiplier detector (PMT)1 was used in the wavelength detection range of 415 to 500 nm (detection sensitivity: 750 V), for detection of green fluorescence by 2-NBDLG, PMT2 was used in the wavelength detection range of 500 to 580 nm (detection sensitivity: 670 V), and for detection of red fluorescence, PMT3 was used in the wavelength detection range of 580 to 740 nm (detection sensitivity: 670 V). Here, most of the fluorescence of 2-TRLG is present in the wavelength longer than 580 nm and only a small fluorescent component is present in the wavelength less than 580 nm, thus, the fluorescence intensity in the range of 500 to 580 nm of PMT2 is barely influenced by 2-TRLG. Therefore, when the amount of detection of 2-TRLG in cells increases, its effect emerges mainly as an increase in the fluorescence intensity in the range of 580 to 740 nm of PMT3. On the other hand, although 2-NBDLG has the maximal fluorescence intensity around 540 to 550 nm, it has fluorescence in the range of 580 to 740 nm as well. Therefore, when the amount of detection of 2-NBDLG within the cell increases, the fluorescence intensity in the range of 580 to 740 nm detected by PMT3 also increases in addition to an increase in the fluorescence intensity in the range of 500 to 580 nm detected by PMT2. […]

[3] = tested on: mouse insulinoma cells (MIN6); assay: Uptake into MIN6 cells with or without inhibitors, fluorescence microplate reader (Flex Station); assay type: cell-based; settings: 200 μM, 5 minutes
Method: A difference in the uptake of 2-NBDLG (200 μM) and 2-NBDG (200 μM) into mouse insulinoma cells (MIN6) each applied for 5 minutes was analyzed quantitatively by a fluorescence microplate reader Flex Station (manufactured by Molecular Devices Corporation) in the condition whether or not various inhibitors are present. The well used for measurement was a 96-well clear bottomed well plate μ CLEAR-PLATE (Greiner bio-one, BLACK, 96 well, #655090) having longitudinally […] to 12 twelve columns, and MIN6 cell suspension prepared at a proportion of 6×10^5 cells/mL was seeded uniformly into wells from line B to line G at the third column and the fifth column each in an amount of 15 μL. For medium exchange, the half quantity was exchanged every two days in 0 to 4 DIV (days in vitro), and from 5 DIV or later, exchanged every day, and on days 10 to 13 (10 to 13 DIV), the cells were subjected to an experiment. Line A and line H were used as a control for checking correct washout, without seeding cells. In the fourth column, cells were not present, and wells in this column were used as a blank containing only Krebs Ringer buffer solution (KRB, containing 0.1 mM gap junction inhibitor carbenoxolone and 5.6 mM glucose). Evaluation was done in a way that 2-NBDLG or 2-NBDG was charged in each tube of a 8-strip PCR tube, and sucked using a 8-channel pipette and dropped simultaneously into wells. In this way, administration to wells for 2-NBDLG and to wells for 2-NBDG can be done simultaneously, making reliable evaluation possible. As described above, cells are present in 12 wells in the third and the fifth two columns, and these were divide into 4 groups each having 3 wells according to a difference either 2-NBDLG or 2-NBDG and whether an inhibitor is present or absent. Specifically, when checking the effect by the presence or absence of a GLUT inhibitor Cytochalasin B (10 μM) on the uptake of 2-NBDLG (200 μM) and 2-NBDG (200 μM), first, in wells, which are planned to be measured in the presence of Cytochalasin B, Cytochalasin B was added 5 minutes prior to the administration of the fluorescently labeled glucose derivative. Before administration of a fluorescently labeled glucose derivative, the autofluorescence was measured in each well. The measurement was done with Flex Station in Well Scan Mode and in the Bottom Read position at Ex 470 nm, Em 540 nm, Cut off 495 nm, Averaging 3, and Photomultiplier sensitivity: high. In Well Scan Mode of the fluorescence microplate reader Flex Station, one well was divided into nine observation areas and these are measured independently. The presence of approximately 5000 cells in each of 9-divided areas was separately confirmed by Z section measurement of a realtime deconvolution microscope. 2-NBDG and 2-NBDLG were administered with or without Cytochalasin B (37° C., 5 minutes), and after cessation of administration, an operation of adding 250 μL of a KRB solution containing no fluorescently labeled glucose into 50 μL of a solution in a well was repeated 7 times while measuring with a stopwatch, thereby performing washout until the fluorescence intensities of wells in line A and line H set as a control group became equal to the fluorescence intensity of the blank well containing no cell. This process required 7 minutes, and even if cells having broken plasma membrane condition are brought into contact with 2-NBDG and 2-NBDLG, and even if these compounds are once taken up into the cell, these compounds are already eliminated out of the cell and are washed away in measurement, therefore, contribution to an increase in the fluorescence intensity in the whole observation area was judged to be in an ignorable level. This was supported by a separate pharmacological inhibition experiment in which the increase in the fluorescence intensity nearly disappears in the presence of an inhibitor. The above-described method was carried out similarly in the case of other inhibitors. […]

[4] = 100 μM 2-NBDLG+20 μM 2-TRLG mixture for 3 minutes

For O=[N+]([O-])c1ccc(NC2C(O)OC(CO)[C@H](O)C2O)c2nonc12 (stereo partly drawn) [2-NBDLG, 2-[N-(7-Nitrobenz-2-oxa-1,3-diazol-4-yl)amino]-2-deoxy-L-glucose], the “fluorescence values at tumor-transplanted part (Tumor) versus normal tissue (BG), FIG. 3” value ([1]; 400 nmol i.v., temporal change over 45 minutes, same result in 6 examples) was “fluorescence values at the tumor-transplanted part (blue rhombus, Tumor) are consistently larger than at normal tissue”, the “time from which accumulations at the tumor cell-transplanted part were recognized” value ([1]; 400 nmol/100 μL from the tail vein) was “around 5 minutes after administration” and the “accumulation at the tumor-transplanted part” value ([1]; 400 nmol/100 μL from the tail vein over 30 seconds, non-fasted nude mice, fluorescence images every one minute) was “intense accumulations”. The “contrast between tumor-transplanted part and normal tissue (adipocyte-rich dorsal part near neck)” value ([1]; 400 nmol/100 μL from the tail vein, non-fasted mice) was “excellent contrast; also recorded: high contrast”, the “uptake/accumulation in normal tissue” value ([1]; 400 nmol/100 μL from the tail vein, normal tissue (fat tissue on the back, between back bones, muscle)) was “scarcely taken up” and the “fluorescence at the central region of the cell cluster, 4 minutes after cessation of administration” value [2, 4] was “weaken to a considerable extent”. The “uptake into cells just outside of the central region of the cell cluster” value [2, 4] was “taking up almost no”, the “uptake at the central region of the cell cluster, 2 minutes after cessation of administration” value ([2]; 100 μM 2-NBDLG+20 μM 2-TRLG mixture for 3 minutes, green channel (2-NBDLG), red channel (2-TRLG)) was “Intense uptake” and the “time of elimination from spherical cells on the outermost periphery of the cell cluster” value ([2]; 100 μM 2-NBDLG+20 μM 2-TRLG mixture, after cessation of administration) was no more than 2 min. The “time of elimination from cells at the central region of the tumor cell cluster” value ([2]; 100 μM 2-NBDLG+20 μM 2-TRLG mixture, between 2 and 4 minutes after cessation) was no more than 2 min, the “effect of GLUT inhibitor Cytochalasin B on uptake into MIN6 cells” value ([3]; 37° C., Cytochalasin B (10 µM, CB)) was “did not show a significant decrease (N.S.)” and the “uptake into MIN6 cells in buffer containing Na+ versus no Na+ ion (SGLT)” value ([3]; 37° C., Na(−) buffer, choline substituted) was “no significant difference”. The “effect of Phloretin on uptake into MIN6 cells” value ([3]; Phloretin (150 μM, PHT)) was “underwent inhibition of the uptake”.
